The source of these data is patent publication US10654802B2, “Indoline derivatives and method for using and producing the same” (ARIZONA BOARD OF REGENTS ON BEHALF OF THE UNIVERSITY OF …, priority 2016, dated 2020).

In this assay the target is T1, Nox4 (Homo sapiens, UniProt Q9NPH5).
T1 construct: expressed in transfected cells
T1 sequence (Q9NPH5 1-578): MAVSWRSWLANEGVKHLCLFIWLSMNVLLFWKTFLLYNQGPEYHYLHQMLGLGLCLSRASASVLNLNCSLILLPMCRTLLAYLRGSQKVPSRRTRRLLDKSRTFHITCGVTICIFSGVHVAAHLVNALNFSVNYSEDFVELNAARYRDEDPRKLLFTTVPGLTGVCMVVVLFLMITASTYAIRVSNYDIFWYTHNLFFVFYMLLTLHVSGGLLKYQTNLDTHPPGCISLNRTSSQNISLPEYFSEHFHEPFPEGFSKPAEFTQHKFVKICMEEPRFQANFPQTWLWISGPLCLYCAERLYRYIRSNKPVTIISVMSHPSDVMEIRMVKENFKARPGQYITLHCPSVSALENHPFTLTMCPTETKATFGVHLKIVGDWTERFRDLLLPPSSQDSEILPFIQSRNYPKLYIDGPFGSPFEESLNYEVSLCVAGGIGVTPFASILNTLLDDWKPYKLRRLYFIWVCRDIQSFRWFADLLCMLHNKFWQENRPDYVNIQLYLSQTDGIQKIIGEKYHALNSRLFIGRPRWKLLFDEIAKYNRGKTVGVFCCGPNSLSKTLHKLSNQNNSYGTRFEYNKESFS
T1 sequence (P13498 1-195 partner): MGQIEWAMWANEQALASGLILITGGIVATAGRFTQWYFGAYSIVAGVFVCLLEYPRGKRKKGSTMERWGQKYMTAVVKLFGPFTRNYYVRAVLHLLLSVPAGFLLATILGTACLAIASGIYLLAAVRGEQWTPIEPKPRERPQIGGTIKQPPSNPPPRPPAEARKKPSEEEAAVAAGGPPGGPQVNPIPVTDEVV
As to the kind of experiment: Inhibition of Nox4-dependent H2O2 production in HEK/Nox4 cells, Amplex Red assay. The following applies: for remaining activity at 1 µM: 1 μM final concentration; for remaining activity at 1 µM / remaining activity at 5 µM / remaining activity at 10 µM: 1 h, HEK/Nox4 cells, DMSO vehicle = 1.000, n = 3-10, read-out: H2O2 production relative to vehicle control, Mean; for remaining activity at 5 µM: 5 μM final concentration; for remaining activity at 10 µM: 10 μM final concentration. Format: cell-based. The procedure:
A high-throughput screening (HTS) assay was established for Nox4 inhibition, utilizing HEK293 cells that stably over-express Nox4 (HEK/Nox4 cells), which generate high levels of H2O2(Cheng G et al, Gene: 2001, p. 131-140). Over 30,000 compounds have been screened and medicinal chemistry efforts have led to the synthesis of numerous analogs and the identification of a chemically distinct series of selective Nox4 inhibitors. […] IC-50 was evaluated for UANox048 (FIG. 1B).
HEK cells stably transfected to overexpress Nox4 were treated with varying concentrations of test compounds, DPI (all-Nox inhibitor positive control), or DMSO (vehicle control) and incubated for 1 h (FIG. 1). (FIG. 1A) H2O2 presence was evaluated by Amplex Red assay. […] Values represent means±SEM; n=4. P values were calculated by student's two-tailed t test. *p<0.05, **p<0.01, *** p<0.001.

Regarding `CCN(CC)S(=O)(=O)NCCN1CCc2ccccc21` [UANOX001, N—(N,N-diethylaminosulfonyl)-2-(indolin-1-yl)ethan-1-amine], the remaining activity at 1 µM worked out at 99.5%, the remaining activity at 5 µM turned out to be 106% and the remaining activity at 10 µM was found to be 103%.
The like results for `CCN(CC)C(=O)NCCN1CCc2ccccc21` [UANOX002, 1,1-diethyl-3-(2-(indolin-1-yl)ethyl)urea] were, in that order, 98.6%, 106% and 101%.
The matching figures for `CN(C)S(=O)(=O)NCCN1CCc2ccccc21` [UANOX003, N—(N,N-dimethylaminosulfonyl)-2-(indolin-1-yl)ethan-1-amine]: 101%, 103% and 103%.
Take `O=S(=O)(NCCN1CCc2ccccc21)N1CCCC1` [UANOX004, N-(2-(indolin-1-yl)ethyl)pyrrolidine-1-sulfonamide]: the remaining activity at 1 µM came to 99.4%, the remaining activity at 5 µM worked out at 101% and the remaining activity at 10 µM came to 88.2%.
`CCN(CC)C(=O)NCC(C)N1CCc2ccccc21` (stereo not shown) [UANOX006, 1,1-diethyl-3-(2-(indolin-1-yl)propyl)urea]: the remaining activity at 1 µM worked out at 82.2%, the remaining activity at 5 µM came to 82.5% and the remaining activity at 10 µM turned out to be 74.1%.
The matching figures for `CC(CNS(=O)(=O)N(C)C)N1CCc2ccccc21` (stereo not shown) [UANOX007, N—(N,N-dimethylaminosulfonyl)-2-(indolin-1-yl)propane-1-amine]: 103%, 91.6% and 90.8%.
As for `CC(CNS(=O)(=O)N1CCCC1)N1CCc2ccccc21` (stereo not shown) [UANOX008, N-(2-(indolin-1-yl)propyl)pyrrolidine-1-sulfonamide], the remaining activity at 1 µM turned out to be 98.4%, the remaining activity at 5 µM came to 77.9% and the remaining activity at 10 µM is 67.8%.
The like results for `CN1CCN(C(=O)NCCN2CCc3ccccc32)CC1` [UANOX011, N-(2-(indolin-1-yl)ethyl)-4-methylpiperazine-1-carboxamide] were, in that order, 98%, 97.9% and 95.6%.
The matching figures for `O=S(=O)(NCCN1CCc2ccccc21)N1CCOCC1` [UANOX012, N-(2-(indolin-1-yl)ethyl)morpholine-4-sulfonamide]: 96%, 95% and 85.7%.
The like results for `O=S(=O)(NCCN1CCc2ccccc21)N1CCCCC1` [UANOX013, N-(2-(indolin-1-yl)ethyl)piperidine-1-sulfonamide] were, in that order, 101%, 92.1% and 88.1%.
Turning to `c1ccc2c(c1)CCN2CCN1CCCCC1` [UANOX018, 1-(2-(piperidin-1-yl)ethyl)indoline], the remaining activity at 1 µM is 110%, the remaining activity at 5 µM was 103% and the remaining activity at 10 µM is 100%.
The matching figures for `CC(CNC(=O)N1CCN(C)CC1)N1CCc2ccccc21` (stereo not shown) [UANOX019, N-(2-(indolin-1-yl)propyl)-4-methylpiperazine-1-carboxamide]: 91.5%, 81.4% and 74.1%.
The matching figures for `CC(CNC(=O)N1CCCC1)N1CCc2ccccc21` (stereo not shown) [UANOX020, N-(2-(indolin-1-yl)propyl)pyrrolidine-1-carboxamide]: 73.7%, 87% and 86.6%.
The matching figures for `O=C(NCCN1CCc2ccccc21)N1CCCC1` [UANOX021, N-(2-(indolin-1-yl)ethyl)pyrrolidine-1-carboxamide]: 74.2%, 87.6% and 79.1%.
Regarding `O=C(CCN1CCN(c2ncccn2)CC1)N1CCc2ccccc21` [UANOX022, 1-(indolin-1-yl)-3-(4-(pyrimidin-2-yl)piperazin-1-yl)propan-1-one], the remaining activity at 1 µM was found to be 111%, the remaining activity at 5 µM came to 107% and the remaining activity at 10 µM came to 110%.
On to `O=C(CNC1CCCCCC1)N1CCc2ccccc21` [UANOX023, 2-(cycloheptylamino)-1-(indolin-1-yl)ethan-1-one], for which the remaining activity at 1 µM turned out to be 98.4%, the remaining activity at 5 µM amounted to 108% and the remaining activity at 10 µM is 100%.
The like results for `CCN(CC)S(=O)(=O)N1CCN(CC(=O)N2CCc3ccccc32)CC1` [UANOX025, N,N-diethyl-4-(2-(indolin-1-yl)-2-oxoethyl)piperazine-1-sulfonamide] were, in that order, 107%, 113% and 112%.
The like results for `O=C(CN1CCN(S(=O)(=O)N2CCOCC2)CC1)N1CCc2ccccc21` [UANOX026, 1-(indolin-1-yl)-2-(4-(morpholinosulfonyl)piperazin-1-yl)ethan-1-one] were, in that order, 90.6%, 106% and 101%.
The matching figures for `O=C(CN1CCN(S(=O)(=O)N2CCCCC2)CC1)N1CCc2ccccc21` [UANOX027, 1-(indolin-1-yl)-2-(4-(piperidin-1-ylsulfonyl)piperazin-1-yl)ethan-1-one]: 113%, 113% and 112%.
As for `CN(C)S(=O)(=O)N1CCN(CC(=O)N2CCc3ccccc32)CC1` [UANOX028, 4-(2-(indolin-1-yl)-2-oxoethyl)-N,N-dimethylpiperazine-1-sulfonamide], the remaining activity at 1 µM came out at 108%, the remaining activity at 5 µM amounted to 112% and the remaining activity at 10 µM amounted to 111%.
The like results for `CCN(CC)S(=O)(=O)N1CCN(CCC(=O)N2CCc3ccccc32)CC1` [UANOX029, N,N-diethyl-4-(3-(indolin-1-yl)-3-oxopropyl)piperazine-1-sulfonamide] were, in that order, 112%, 112% and 110%.
The matching figures for `O=C(CCN1CCN(S(=O)(=O)N2CCOCC2)CC1)N1CCc2ccccc21` [UANOX030]: 108%, 108% and 104%.
The like results for `O=C(CCN1CCN(S(=O)(=O)N2CCCCC2)CC1)N1CCc2ccccc21` [UANOX031, 1-(indolin-1-yl)-3-(4-(piperidin-1-ylsulfonyl)piperazin-1-yl)propan-1-one] were, in that order, 111%, 111% and 99.7%.
On to `CN(C)S(=O)(=O)N1CCN(CCC(=O)N2CCc3ccccc32)CC1` [UANOX032, 4-(3-(indolin-1-yl)-3-oxopropyl)-N,N-dimethylpiperazine-1-sulfonamide], for which the remaining activity at 1 µM came to 112%, the remaining activity at 5 µM worked out at 109% and the remaining activity at 10 µM came out at 105%.
Consider `CC(CNC(=O)c1csc(-c2ccncc2)n1)N1CCc2ccccc21` (stereo not shown) [UANOX033, N-(2-(indolin-1-yl)propyl)-2-(pyridin-4-yl)thiazole-4-carboxamide], for which the remaining activity at 1 µM was 100%, the remaining activity at 5 µM is 91.2% and the remaining activity at 10 µM came to 86.7%.
Regarding `COc1ccc(S(=O)(=O)NCC(C)N2CCc3ccccc32)cc1` (stereo not shown) [UANOX034, N-(2-(indolin-1-yl)propyl)-4-methoxybenzenesulfonamide], the remaining activity at 1 µM amounted to 95.9%, the remaining activity at 5 µM amounted to 80.3% and the remaining activity at 10 µM stood at 70.6%. For the same molecule, for the setting “varying concentrations, Amplex Red, FIG. 1A”, the “H2O2 generation by HEK/Nox4 cells” value is “dose-dependent decrease”.
